Data from patent publication US9322022B2, “Inhibition of DNA2 in fanconi anemia” (California Institute of Technology, priority 2013, dated 2016).

What was measured:
[1] = test system: PD20 FANCD2−/− cells complemented with wild-type FANCD2; test: Clonogenic assay for cisplatin sensitivity; assay type: cell-based, human
Procedure: (§1) The genetic interaction between FANCD2 and DNA2 was examined in the repair of cisplatin- or formaldehyde-induced damage. Using PD20 FANCD2^−/− cells complemented with wild-type FANCD2 or an empty vector, DNA2 was depleted using shRNA techniques (FIG. 2A). As shown, DNA2 was reduced to levels undetectable by western blotting. The cell lines were exposed to cisplatin, and a clonogenic assay was performed (FIG. 2B). […] This rescue is stronger than previously reported, consistent with lower residual DNA2 levels detected by western blotting in the knockdowns (Karanja et al., 2012, Cell Cycle, 11:3983-3996, the entire contents of which are herein incorporated by reference.)
(§2) For acute exposure, formaldehyde (0, 40, 80, 160, 320 μM) was added for 4 h in PBS. Cells were washed in PBS and grown for 5 days. For chronic exposure, cells were continuously grown in formaldehyde (0, 30, 60, 90, 120 μM) for 6 days. To determine viability, cells were fixed and stained with crystal violet and scanned with a Licor Odyssey scanner (LiCor Biosciences). The surviving fraction was determined by comparing treated with the non-treated controls. […] Surviving fraction was determined by comparing treated with the non-treated controls.

PD20 FANCD2−/− cells = test: Clonogenic assay for cisplatin sensitivity; assay type: cell-based, human; settings: FANCD2−/− cells (empty vector)
Procedure: as §1, §2

With `N.N.[Cl][Pt][Cl]` [cisplatin] the “sensitivity of cells to cisplatin (clonogenic survival)” value [1] was “resistant” and the “sensitivity of cells to cisplatin (clonogenic survival)” value (PD20 FANCD2−/− cells) was “very sensitive”.
